In ChEMBL document CHEMBL1201862, “PubChem BioAssay data set” (2004):
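All cell lines were grown in 96-well plates and treated with compound for 48 hours. GI50 = concentration required for 50% inhibition of growth.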 Active and inactive are the calls of the source. Rule as the data show it: active = GI50 up to about 1.1 µM and inactive = higher.

Assays:
Assay in all cases: NCI anticancer screen, dose series, 48 h
[1] = system: MOLT-4
[2] = system: T47D
[3] = system: COLO 205
[4] = system: Hs-578T
[5] = system: OVCAR-3
[6] = system: SF-268
[7] = system: EKVX
[8] = system: RXF 393
[9] = system: KM12
[10] = system: MDA-MB-435
[11] = system: SW-620
[12] = system: PC-3
[13] = system: OVCAR-4
[14] = system: HCT-116
[15] = system: MDA-MB-231
[16] = system: UACC-257
[17] = system: IGROV-1
[18] = system: OVCAR-8
[19] = system: MCF7

Row | SMILES | GI50 [1] | GI50 [2] | GI50 [3] | GI50 [4] | GI50 [5] | GI50 [6] | GI50 [7] | GI50 [8] | GI50 [9] | GI50 [10] | GI50 [11] | GI50 [12] | GI50 [13] | GI50 [14] | GI50 [15] | GI50 [16] | GI50 [17] | GI50 [18] | GI50 [19]
1 | COc1cc(N(CCC#N)CCC#N)ccc1/C=N\NC(=O)c1ccc(C)cc1 | > 100 µM (inactive) | > 100 µM (inactive) | > 100 µM (inactive) | > 100 µM (inactive) | 75.2 µM (inactive) | > 100 µM (inactive) | > 100 µM (inactive) | > 100 µM (inactive) | > 100 µM (inactive) | > 100 µM (inactive) | > 100 µM (inactive) | 17.3 µM (inactive) | > 100 µM (inactive) | > 100 µM (inactive) | 18.2 µM (inactive) | > 100 µM (inactive) | > 100 µM (inactive) | > 100 µM (inactive) | 
2 | COc1cc(C2c3cc4c(cc3[C@@H](Nc3ccccc3)C3CO[C@@H](OC)[C@H]23)OCO4)cc(OC)c1O (some centres not stated) | 0.984 µM (active) | 8.36 µM (inactive) | 12.3 µM (inactive) | 3.21 µM (inactive) |  | 7.29 µM (inactive) | 20.7 µM (inactive) |  | 5.83 µM (inactive) | 9.79 µM (inactive) | 6.52 µM (inactive) | 8.81 µM (inactive) | > 25 µM (inactive) | 7.38 µM (inactive) |  | > 25 µM (inactive) | 20.9 µM (inactive) | 7.03 µM (inactive) | 4.5 µM (inactive)
3 | CCOC(=O)Cc1ccc(Nc2nc3ccccc3nc2C(=O)OCC)cc1 | > 100 µM (inactive) | 36.6 µM (inactive) | > 100 µM (inactive) | 34.5 µM (inactive) | > 100 µM (inactive) | 53.7 µM (inactive) | 38.4 µM (inactive) | 24 µM (inactive) | > 100 µM (inactive) | > 100 µM (inactive) | > 100 µM (inactive) | 62.5 µM (inactive) | 77.1 µM (inactive) | > 100 µM (inactive) |  | > 100 µM (inactive) | 57.5 µM (inactive) | 56.1 µM (inactive) | 61.7 µM (inactive)
4 | O=S1(=O)OCCOS(=O)(=O)C1F | > 100 µM (inactive) | > 100 µM (inactive) | > 100 µM (inactive) | > 100 µM (inactive) | > 100 µM (inactive) | > 100 µM (inactive) | > 100 µM (inactive) | > 100 µM (inactive) | > 100 µM (inactive) | > 100 µM (inactive) | > 100 µM (inactive) | > 100 µM (inactive) | > 100 µM (inactive) | > 100 µM (inactive) |  | > 100 µM (inactive) |  | > 100 µM (inactive) | > 100 µM (inactive)
5 | [N-]=[N+]=NC(c1cn(C2CC(O)C(CO)O2)c(=O)[nH]c1=O)C(Cl)I (configuration not stated) | > 100 µM (inactive) | > 100 µM (inactive) | > 100 µM (inactive) | > 100 µM (inactive) | > 100 µM (inactive) | > 100 µM (inactive) | > 100 µM (inactive) | > 100 µM (inactive) | > 100 µM (inactive) | > 100 µM (inactive) | > 100 µM (inactive) |  | > 100 µM (inactive) | > 100 µM (inactive) | > 100 µM (inactive) | > 100 µM (inactive) | > 100 µM (inactive) | > 100 µM (inactive) | > 100 µM (inactive)
